{"source": "patent US20210106579A1", "about": "“AMELIORATION OF COGNITIVE AND MOTOR DEFICITS ASSOCIATED WITH ALZHEIMER'S” (Neuralstem, Inc., priority 2018, published 2021)", "key": {"[1]": {"test_system": "5XFAD mice", "test": "Barnes maze test (learning and memory retention) in Alzheimer's mouse model", "format": "in vivo", "conditions": "30 mg/kg/day oral; for Memory retention (Barnes maze, retest after two days): 5XFAD mice", "procedure": "(§1) A mouse model of Alzheimer's disease obtained from Jackson Laboratory was used in this study. […] Wild type control B6SJLF1/J mice were used. 5XFAD mice developed cognitive impairments at 4-5 months of age. Four groups of mice were employed, 15 mice per group, a wild type control administered vehicle; a wild type control administered NSI-189 as the phosphate salt administered orally at a level of 30 mg/kg per day and 5XFAD mice administered vehicle or administered NSI-189 as the phosphate salt orally also at 30 mg/kg/day (of the organic moiety). NSI-189 is of Formula 2 wherein R^1 is isoamyl. The treatment began at 15 weeks and was maintained for 12 weeks with measurements made after 6 weeks and 12 weeks.\nThe Barnes maze test is described in King, M. R., et al., J. Neurosc. Res. (supra). The Barnes maze consists of a brightly lit, circular, white platform with 20 holes with equidistant spacing around the periphery. An escape box is placed beneath one of the holes marked by a visual clue. Before testing begins, the mouse is placed in the center of the platform and allowed to explore until either it finds the escape box or five minutes has elapsed. The time to locate the escape box is then recorded at the end of the session, the mouse is left in, or placed in, the escape box for an additional minute.\nThis system is used to test both learning and memory. To test learning, the mouse was placed in the maze for five consecutive days to ascertain whether the time required to find the escape box was decreased, which would indicate learning. To test memory retention, a subsequent period of two days was allowed to elapse and the mouse was retested to ascertain whether a decreased time in finding the escape box was found."}, "[2]": {"test_system": "5XFAD mice", "test": "Object recognition test (short term memory) in Alzheimer's mouse model", "format": "in vivo", "conditions": "30 mg/kg/day oral, 6 weeks of treatment, FIG. 5", "procedure": "as §1\nThe object recognition test is also described in King, M. R., et al. (supra). This is based on a concept that the mice will explore a novel object for a longer time than a familiar object. Two identical objects are placed equal distance from each other and from the side of a transparent box and mice are given 10 minutes to achieve 30 seconds of exploration of the two objects after which they are placed back in their home cage. […] The time that the mouse spends exploring the familiar and novel object is recorded and mice with normal cognitive function typically spend more time with a novel object."}, "[3]": {"test_system": "5XFAD mice", "test": "Learning Rota-Rod test (motor skills and learning) in Alzheimer's mouse model", "format": "in vivo", "conditions": "30 mg/kg/day oral", "procedure": "as §1\nThe Rota-Rod test also is described in King, et al. (supra). Rota-Rod is marketed by Stoelting Company, Wood Dale, Ill. This is a rod that rotates accelerating from 4-40 rpm over five minutes and the amount of time spent on the rod before loss of balance is recorded over three trials. This measures both motor skills, and if conducted over a period of days, it measures learning."}, "[4]": {"test_system": "5XFAD mice", "test": "Anxiety: time spent on the edge of an inverted beaker", "format": "in vivo, mouse", "conditions": "FIG. 8", "procedure": "as §1\nThe time spent on the edge of an inverted beaker is used to assess anxiety, and the lower the time the more the anxious the mouse."}}}
{"molecule": "CC(C)CCNc1ncccc1C(=O)N1CCN(Cc2ccccc2)CC1", "note": "[NSI-189]", "values": [{"measurement": "Learning (Barnes maze)", "setting": "[1]; 5XFAD mice (7 month old), 12 weeks of treatment, FIG. 3", "value": "amelioration of worsened learning deficit"}, {"measurement": "Memory retention (Barnes maze, retest after two days)", "setting": "[1]; 6 weeks of treatment, FIG. 2", "value": "improved memory"}, {"measurement": "Memory retention (Barnes maze, retest after two days)", "setting": "[1]; 12 weeks of treatment, FIG. 4", "value": "improvement of memory retention"}, {"measurement": "Learning (Barnes maze, time to find escape box over five consecutive days)", "setting": "[1]; control and 5XFAD mice, 6 weeks of treatment, FIG. 1", "value": "appeared not to affect the learning curve of either group"}, {"measurement": "Recognition index (object recognition test)", "setting": "[2]", "value": "improved the recognition index of 5XFAD mice"}, {"measurement": "Motor skill at the beginning and learning (time on Rota-Rod)", "setting": "[3]; 5XFAD mice, 6 weeks of treatment, FIG. 7", "value": "improves both the motor skill exhibited at the beginning and learning even over control"}, {"measurement": "Behavior of control mice", "setting": "[3]; wild type control mice, statement covers the behavioural tests", "value": "In no case did NSI-189 affect the behavior of control mice"}, {"measurement": "Anxiety (time spent on the edge of an inverted beaker)", "setting": "[4]; control and 5XFAD mice at 7 months (12 weeks of treatment)", "value": "partially reduced the anxiety in both"}, {"measurement": "Anxiety (time spent on the edge of an inverted beaker)", "setting": "[4]; control and 5XFAD mice at five months (6 weeks of treatment)", "value": "did not affect either group"}]}
